Experimental findings from article PMC9854539, “QSAR Studies, Molecular Docking, Molecular Dynamics, Synthesis, and Biological Evaluation of Novel Quinolinone-Based Thiosemicarbazones against Mycobacterium tuberculosis” (Antibiotics, 2022) are described below.

Converted amounts (≈) assume the structure as drawn.

What all share (assay type): cell-based, Mycobacterium tuberculosis
One experiment deals with M. tuberculosis Beijing. As to the kind of experiment: Spot culture growth inhibition assay (SPOTi), MIC. As to conditions: multiresistant to isoniazid and rifampicin.
The next experiment concerns M. tuberculosis Orphan. As to the kind of experiment: Spot culture growth inhibition assay (SPOTi), MIC. Conditions: Mycobacterium tuberculosis; multiresistant to isoniazid and rifampicin.
In experiment [1] the test system is M. tuberculosis ATCC 35822. Briefly: Spot culture growth inhibition assay (SPOTi), MIC. As to conditions: isoniazid resistant.
For another experiment, the system named is M. tuberculosis Haarlem. Briefly: Spot culture growth inhibition assay (SPOTi), MIC. Conditions: multiresistant to isoniazid and rifampicin.
The subject of a further experiment is M. tuberculosis LAM 9. Briefly: Spot culture growth inhibition assay (SPOTi), MIC. As to conditions: multiresistant to isoniazid and rifampicin.
The test system of experiment [2] is M. tuberculosis ATCC 35838. Briefly: Spot culture growth inhibition assay (SPOTi), MIC. Conditions: rifampicin resistant.
The test system of experiment [3] is multiresistant M. tuberculosis. Conditions: summary of Table 9.
Setting [4] is: Mycobacterium tuberculosis, ATCC35822.
The mark [5] stands for this setting: Mycobacterium tuberculosis, LAM9.
[6] abbreviates: Mycobacterium tuberculosis, ATCC35838.

The MIC is the smallest concentration in the dilution series that meets the test's criterion for growth inhibition.

As to `CC(/C=C/c1cc2cc(Br)ccc2[nH]c1=O)=N\NC(N)=S` [Compound 11e, (E)-2-((E)-4-(6-Bromo-2-oxo-1,2-dihydroquinolin-3-yl)but-3-en-2-ylidene)hydrazine-1-carbothioamide], the MIC is 0.27 µM (≈ 0.0986 µg/mL) against M. tuberculosis Beijing (Mycobacterium tuberculosis); 27.4 µM (≈ 10 µg/mL) against M. tuberculosis Orphan; 1.37 µM (≈ 0.5 µg/mL) in experiment [1] (setting [4]); 27.4 µM (≈ 10 µg/mL) in the experiment with M. tuberculosis Haarlem (Mycobacterium tuberculosis); 2.74 µM (≈ 1 µg/mL) in the experiment on M. tuberculosis LAM 9 (setting [5]); 2.73 µM (≈ 0.997 µg/mL) in experiment [2] (setting [6]).
`CC(/C=C/c1cc2ccc(Cl)cc2[nH]c1=O)=N\NC(N)=S` [Compound 11d, (E)-2-((E)-4-(7-Chloro-2-oxo-1,2-dihydroquinolin-3-yl)but-3-en-2-ylidene)hydrazine-1-carbothioamide]: the MIC with M. tuberculosis Beijing (Mycobacterium tuberculosis) is 0.33 µM (≈ 0.106 µg/mL); against M. tuberculosis Orphan it was 6.23 µM (≈ 2 µg/mL); in experiment [1] (setting [4]), 6.23 µM (≈ 2 µg/mL); against M. tuberculosis Haarlem (Mycobacterium tuberculosis) it was 1.56 µM (≈ 0.5 µg/mL); in the experiment with M. tuberculosis LAM 9 (setting [5]) it was 3.12 µM (≈ 1 µg/mL); in experiment [2] (setting [6]), 3.33 µM (≈ 1.07 µg/mL).
Take `CC(/C=C/c1cc2cccc(C)c2[nH]c1=O)=N\NC(N)=S` [Compound 11c, (E)-2-((E)-4-(8-Methyl-2-oxo-1,2-dihydroquinolin-3-yl)but-3-en-2-ylidene)hydrazine-1-carbothioamide]: the MIC was 0.33 µM (≈ 0.0991 µg/mL) in the experiment on M. tuberculosis Beijing (Mycobacterium tuberculosis); 66.6 µM (≈ 20 µg/mL) with M. tuberculosis Orphan; 0.33 µM (≈ 0.0991 µg/mL) in experiment [1] (setting [4]); 33.3 µM (≈ 10 µg/mL) against M. tuberculosis Haarlem (Mycobacterium tuberculosis); 3.29 µM (≈ 0.988 µg/mL) with M. tuberculosis LAM 9 (setting [5]); 1.66 µM (≈ 0.499 µg/mL) in experiment [2] (setting [6]).
Consider `CC(/C=C/c1cc2cc(C)ccc2[nH]c1=O)=N\NC(N)=S` [Compound 11b, (E)-2-((E)-4-(6-Methyl-2-oxo-1,2-dihydroquinolin-3-yl)but-3-en-2-ylidene)hydrazine-1-carbothioamide], for which the MIC stood at 1.66 µM (≈ 0.499 µg/mL) against M. tuberculosis Beijing (Mycobacterium tuberculosis); 33.3 µM (≈ 10 µg/mL) against M. tuberculosis Orphan; 3.33 µM (≈ 1 µg/mL) in experiment [1] (setting [4]); 3.33 µM (≈ 1 µg/mL) against M. tuberculosis Haarlem (Mycobacterium tuberculosis); 16.6 µM (≈ 5 µg/mL) with M. tuberculosis LAM 9 (setting [5]); 3.33 µM (≈ 1 µg/mL) in experiment [2] (setting [6]).
As to `CC1COc2c(N3CCN(C)CC3)c(F)cc3c(=O)c(C(=O)O)cn1c23` (stereo not drawn) [Oxafloxacin, reference compound], the MIC (in the experiment with M. tuberculosis Beijing; in experiment [1]; against M. tuberculosis Haarlem; in the experiment with M. tuberculosis LAM 9; in experiment [2]) was 2.76 µM (≈ 0.997 µg/mL) throughout. In experiment [3], the “MIC against the different families of multiresistant M. tuberculosis” value amounted to 2.76 µM.
